Literature values as cited in patent US5604233A, “Lactone stable formulation of 7-ethyl camptothecin and methods for uses thereof” (priority 1994, dated 1997).

Experiments:
[1] = tested on: L1210 leukemia; conditions: 10-100 mg/kg intraperitoneally; cited from earlier work
[2] = Phase I, early 1970's; cited from earlier work
[3] = tested on: topoisomerase II; conditions: cited from earlier work
[4] = tested on: Topoisomerase I purified from human colon carcinoma cells or calf thymus; conditions: cited from earlier work
[5] = tested on: L1210 cells; conditions: cited from earlier work
[6] = cited from earlier work
[7] = pH levels below 7.0; cited from earlier work
[8] = tested on: topoisomerase I; conditions: cited from earlier work

## CC[C@@]1(O)C(=O)OCc2c1cc1n(c2=O)Cc2cc3ccccc3nc2-1 [camptothecin]
[1]
  T/C (treated/control) ratios relative to ECPT and HECPT: superior
  results relative to CPT-11 under the same conditions: inferior
[2]
  antitumor activity in Phase I trials: antitumor activity
  toxicity in Phase I trials: unpredictable myelosuppression and hemorrhagic cystitis
[3]
  effect on topoisomerase II: no effect
[4]
  inhibition of purified topoisomerase I: inhibited
[5]
  protein-free breaks: increase in unexplained protein-free breaks
[6]
  solubility in water: poorly soluble in water
[7]
  form predominating: closed form
[8]
  reversibility of cleavable complex stabilization: readily reversible
